Patent US20020076443A1, “Multiple phase cross-linked compositions and uses thereof” (priority 2000, published 2002)

What was measured:
Water solubility = format: physicochemical; details: clinical grade dextran of about 70 kDa versus HSA
[1] = cited from earlier work

dextran
water solubility, fold lower than HSA (Water solubility): > 10 fold
water solubility [1]: about 30 mg/mL
